The values that follow come from patent US12350270B2, “Antimalarial agents” (Merck Sharp & Dohme LLC, priority 2019, dated 2025).

As usually defined, the EC50 is the midpoint of the concentration-response curve. High values mean a need for much substance, low ones an effect from little substance.

The test system of the first test is parasites (ring stage, in human red blood cell culture). Put plainly: Parasite LDH growth assay (antiparasite potency, Parasite Assay). It is filed as cell-based, Plasmodium falciparum. Particulars: 0.7% rings, 2% haematocrit, 72 hours at 37° C., LDH readout of parasite growth. In a few lines: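 Growth was read by an LDH assay after a freeze–thaw cycle (−80 °C overnight, 4 h thaw at RT). Before that, parasites grew with compound for 72 h at 37 °C under gassed, humidified conditions. The input was a ring-stage culture adjusted to 0.7% parasitemia and 2% haematocrit in serum (5%)/albumax (0.5%)-supplemented RPMI-Hepes.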
`CCC1(CC)C[C@@H](N2C(=N)NC(C)(C)CC2=O)c2cc(C(=O)N[C@@H]3c4ccccc4OC[C@H]3O)ccc2O1` [Example 57A, (R)-2,2-diethyl-N-((3S,4R)-3-hydroxychroman-4-yl)-4-(2-imino-4,4-dimethyl-6-oxotetrahydropyrimidin-1(2H)-yl)chromane-6-carboxamide] displayed an EC50 of 18.3 nM.

`CCC1(CC)CC(=O)N([C@H]2c3cc(C(=O)N[C@@H]4c5ccccc5OC(C)(C)[C@H]4O)ccc3OCC2OC)C(=N)N1` (stereo partly drawn) [Example 67A, (3R,4S)-4-(4,4-diethyl-2-imino-6-oxotetrahydropyrimidin-1(2H)-yl)-N-((3S,4R)-3-hydroxy-2,2-dimethylchroman-4-yl)-3-methoxychromane-6-carboxamide]: a half-maximal response (EC50) required 170 nM.

With `CCC1(CC)CC(=O)N([C@H]2c3cc(C(=O)N[C@@H]4c5ccccc5OC(C)(C)[C@H]4O)ccc3OCC2OC)C(=N)N1` (stereo partly drawn) [Example 67B, (3R,4S)-4-(4,4-diethyl-2-imino-6-oxotetrahydropyrimidin-1(2H)-yl)-N-((3S,4R)-3-hydroxy-2,2-dimethylchroman-4-yl)-3-methoxychromane-6-carboxamide], the response was half-maximal at 0.8 nM (EC50).

Consider `CCC1(CC)CC(=O)N([C@H]2c3cc(C(=O)N[C@@H]4c5ccccc5C[C@H]4O)ccc3OC[C@@H]2OC)C(=N)N1` [Example 69A, (3R,4S)-4-(4,4-diethyl-2-imino-6-oxotetrahydropyrimidin-1(2H)-yl)-N-((1R,2R)-2-hydroxy-2,3-dihydro-1H-inden-1-yl)-3-methoxychromane-6-carboxamide], for which the midpoint of the response, the EC50, lay at 2.6 nM.

The molecule `CCC1(CC)CC(=O)N([C@@H]2CCS(=O)(=O)c3ccc(C(=O)N[C@H]4CC(C)(C)Oc5ccccc54)cc32)C(=N)N1` [Example 70A, (R)-4-(4,4-diethyl-2-imino-6-oxotetrahydropyrimidin-1(2H)-yl)-N-((S)-2,2-dimethylchroman-4-yl)thiochromane-6-carboxamide 1,1-dioxide] showed an EC50 of 9.3 nM.

As to `CCC1(CC)CC(=O)N([C@H]2c3cc(C(=O)N[C@@H]4c5ccccc5C[C@H]4O)ccc3OCC2OC)C(=N)N1` (stereo partly drawn) [Example 72A, (3R,4S)-4-(4,4-diethyl-2-imino-6-oxotetrahydropyrimidin-1(2H)-yl)-N-((lR,2R)-2-hydroxy-2,3-dihydro-1H-inden-1-yl)-3-methoxychromane-6-carboxamide], it took 0.5 nM to reach a half-maximal effect (EC50).

As for `CCC1(CC)CC(=O)N([C@H]2c3cc(C(=O)NC4c5ccccc5CC4(C)O)ccc3OC2(C)COC)C(=N)N1` (stereo partly drawn) [Example 76A, (2S,3S)-3-(4,4-diethyl-2-imino-6-oxotetrahydropyrimidin-1(2H)-yl)-N-(2-hydroxy-2-methyl-2,3-dihydro-1H-inden-1-yl)-2-(methoxymethyl)-2-methyl-2,3-dihydrobenzofuran-5-carboxamide], the EC50 is 8.5 nM.

In turn, `CCC1(CC)CC(=O)N([C@H]2c3cc(C(=O)NC4c5ccccc5CC4(C)O)ccc3OC2(C)COC)C(=N)N1` (stereo partly drawn) [Example 76B, (2S,3S)-3-(4,4-diethyl-2-imino-6-oxotetrahydropyrimidin-1(2H)-yl)-N-(2-hydroxy-2-methyl-2,3-dihydro-1H-inden-1-yl)-2-(methoxymethyl)-2-methyl-2,3-dihydrobenzofuran-5-carboxamide] returned an EC50 of 1.1 nM.

`CCC1(CC)CC(=O)N([C@H]2c3cc(C(=O)NC4c5ccccc5CC4(C)O)ccc3OC2(C)COC)C(=N)N1` (stereo partly drawn) [Example 77A, (2S,3S)-3-(4,4-diethyl-2-imino-6-oxotetrahydropyrimidin-1(2H)-yl)-N-(2-hydroxy-2-methyl-2,3-dihydro-1H-inden-1-yl)-2-(methoxymethyl)-2-methyl-2,3-dihydrobenzofuran-5-carboxamide] had an EC50 of 57.1 nM.

For the molecule `CCC1(CC)CC(=O)N([C@H]2c3cc(C(=O)NC4c5ccccc5CC4(C)O)ccc3OC2(C)COC)C(=N)N1` (stereo partly drawn) [Example 77B, (2S,3S)-3-(4,4-diethyl-2-imino-6-oxotetrahydropyrimidin-1(2H)-yl)-N-(2-hydroxy-2-methyl-2,3-dihydro-1H-inden-1-yl)-2-(methoxymethyl)-2-methyl-2,3-dihydrobenzofuran-5-carboxamide], the midpoint of the response, the EC50, lay at 21.4 nM.

Still in this test, the particulars now being: Plasmodium falciparum, Erythrocyte, 72 h, 0.7% rings, 2% haematocrit, 72 hours at 37° C., LDH readout of parasite growth.
On to `CC1(C)CC(=O)N([C@@H]2CC(C)(C)Oc3ccc(C(=O)N[C@H]4c5cc(F)ccc5OC(C)(C)[C@@H]4O)cc32)C(=N)N1` [Example 58A, (R)-N-((3R,4S)-6-fluoro-3-hydroxy-2,2-dimethylchroman-4-yl)-4-(2-imino-4,4-dimethyl-6-oxotetrahydropyrimidin-1(2H)-yl)-2,2-dimethylchromane-6-carboxamide], for which the EC50 worked out at 250 nM.

`CC1(C)CC(=O)N([C@@H]2CC(C)(C)Oc3ccc(C(=O)N[C@@H]4c5cc(F)ccc5OC(C)(C)[C@H]4O)cc32)C(=N)N1` [Example 58B, (R)-N-((3S,4R)-6-fluoro-3-hydroxy-2,2-dimethylchroman-4-yl)-4-(2-imino-4,4-dimethyl-6-oxotetrahydropyrimidin-1(2H)-yl)-2,2-dimethylchromane-6-carboxamide] yielded an EC50 of 3.8 nM.

On to `CCC1(CC)C[C@@H](N2C(=N)NC(C)(C)CC2=O)c2cc(C(=O)N[C@H]3c4cc(F)ccc4OC(C)(C)[C@@H]3O)ccc2O1` [Example 59A, (R)-2,2-diethyl-N-((3R,4S)-6-fluoro-3-hydroxy-2,2-dimethylchroman-4-yl)-4-(2-imino-4,4-dimethyl-6-oxotetrahydropyrimidin-yl)chromane-6-carboxamide], for which the EC50 is 210 nM.

`CCC1(CC)C[C@@H](N2C(=N)NC(C)(C)CC2=O)c2cc(C(=O)N[C@@H]3c4cc(F)ccc4OC(C)(C)[C@H]3O)ccc2O1` [Example 59B, (R)-2,2-diethyl-N-((3S,4R)-6-fluoro-3-hydroxy-2,2-dimethylchroman-4-yl)-4-(2-imino-4,4-dimethyl-6-oxotetrahydropyrimidin-1(2H)-yl)chromane-6-carboxamide]: a half-maximal response (EC50) required 1.6 nM.

In turn, `CC1(C)CC(=O)N([C@@H]2CCOc3ccc(C(=O)N[C@@H]4c5ccccc5C[C@H]4O)cc32)C(=N)N1` [Example 61A, (R)-N-((1R,2R)-2-hydroxy-2,3-dihydro-1H-inden-l-yl)-4-(2-imino-4,4-dimethyl-6-oxotetrahydropyrimidin-1(2H)-yl)chromane-6-carboxamide] had an EC50 of 8.4 nM.

As for `CC1(C)CC(=O)N([C@@H]2CCOc3ccc(C(=O)N[C@@H]4c5ccccc5OC(C)(C)[C@H]4O)cc32)C(=N)N1` [Example 62A, (R)-N-((3S,4R)-3-hydroxy-2,2-dimethylchroman-4-yl)-4-(2-imino-4,4-dimethyl-6-oxotetrahydropyrimidin-1(2H)-yl)chromane-6-carboxamide], a half-maximal response (EC50) required 1.2 nM. This EC50 is about 7-fold lower than that of the molecule before.

As to `CCC1(CC)CC(=O)N([C@@H]2CCOc3ccc(C(=O)NC4CC(=O)Oc5ccccc54)cc32)C(=N)N1` (stereo partly drawn) [Example 63A, (4R)-4-(4,4-diethyl-2-imino-6-oxotetrahydropyrimidin-1(2H)-yl)-N-(2-oxochroman-4-yl)chromane-6-carboxamide], the midpoint of the response, the EC50, lay at 220 nM.

`CCC1(CC)CC(=O)N([C@@H]2CCOc3ccc(C(=O)N4Cc5ccccc5C4)cc32)C(=N)N1` [Example 66A, (R)-6,6-diethyl-2-imino-3-(6-(isoindoline-2-carbonyl)chroman-4-yl)tetrahydropyrimidin-4(1H)-one] yielded an EC50 of 76 nM.

With `CCC1(CC)CC(=O)N([C@H]2c3cc(C(=O)N[C@H]4CC(C)(C)Oc5ccccc54)ccc3OCC2OC)C(=N)N1` (stereo partly drawn) [Example 68A, (3R,4S)-4-(4,4-diethyl-2-imino-6-oxotetrahydropyrimidin-1(2H)-dimethylchroman-4-yl)-3-methoxychromane-6-carboxamide], the EC50 was 1 nM.

With `CCC1(CC)CC(=O)N([C@@H]2CCS(=O)(=O)c3ccc(C(=O)N[C@@H]4c5ccccc5OC(C)(C)[C@H]4O)cc32)C(=N)N1` [Example 71A, (R)-4-(4,4-diethyl-2-imino-6-oxotetrahydropyrimidin-1(2H)-yl)-N-((3S,4R)-3-hydroxy-2,2-dimethylchroman-4-yl)thiochromane-6-carboxamide 1,1-dioxide], the EC50 came to 3.5 nM.

As to `CCC1(CC)CC(=O)N([C@H]2c3cc(C(=O)N[C@@H]4c5ccccc5C[C@H]4O)ccc3O[C@@]2(C)COC)C(=N)N1` [Example 75A, (2R,3S)-3-(4,4-diethyl-2-imino-6-oxotetrahydropyrimidin-1(2H)-yl)-N-((1R,2R)-2-hydroxy-2,3-dihydro-1H-inden-1-yl)-2-(methoxymethyl)-2-methyl-2,3-dihydrobenzofuran-5-carboxamide], it took 0.4 nM to reach a half-maximal effect (EC50).

Regarding `CCC1(CC)CC(=O)N([C@H]2c3cc(C(=O)N[C@@H]4c5ccccc5C[C@H]4O)ccc3O[C@]2(C)COC)C(=N)N1` [Example 75B, (2S,3S)-3-(4,4-diethyl-2-imino-6-oxotetrahydropyrimidin-1(2H)-yl)-N-((1R,2R)-2-hydroxy-2,3-dihydro-1H-inden-1-yl)-2-(methoxymethyl)-2-methyl-2,3-dihydrobenzofuran-5-carboxamide], the EC50 came to 9.5 nM.

Molecule `CC1(C)CC(=O)N([C@@H]2CCc3ccc(C(=O)N[C@@H]4c5ccccc5C[C@H]4O)cc32)C(=N)N1` [Example 78, (3R)-N-[(1R,2R)-2-hydroxyindan-1-yl]-3-(2-imino-4,4-dimethyl-6-oxo-hexahydropyrimidin-1-yl)indane-5-carboxamide] displayed an EC50 of 8.9 nM. The EC50 values of the last two molecules are within 1.5-fold of each other.

With `CC1(C)CC(=O)N([C@@H]2CCc3ccc(C(=O)N[C@@H]4c5ccccc5C[C@]4(C)O)cc32)C(=N)N1` [Example 79, (3R)-N-[(1R,2S)-2-hydroxy-2-methyl-indan-1-yl]-3-(2-imino-4,4-dimethyl-6-oxo-hexahydropyrimidin-1-yl)indane-5-carboxamide], the EC50 was 9.6 nM.

With `CC1(C)CC(=O)N([C@@H]2CCc3ccc(C(=O)N[C@@H]4c5ccccc5C[C@@]4(C)O)cc32)C(=N)N1` [Example 80, (3R)-N-[(1R,2R)-2-hydroxy-2-methyl-indan-1-yl]-3-(2-imino-4,4-dimethyl-6-oxo-hexahydropyrimidin-1-yl)indane-5-carboxamide], the midpoint of the response, the EC50, lay at 18 nM.
